The values below come from patent EP0719267B1, “SECOND MESSENGER CELL SIGNALING INHIBITORS” (CELL THERAPEUTICS, INC., priority 1993, dated 1994).

The subject of data set [1] is murine splenocyte proliferation. Put plainly: Splenocyte (B cell) proliferation stimulated by anti-mu/anti-IgM and IL-4. The format is cell-based. Conditions: Mus musculus, anti-mu and IL-4 12.5 ng/ml. The method, then: This example illustrates inhibitive effects of compounds nos. 27 and 28 on murine splenocyte proliferation stimulated by anti-mu ([…]) and interleukin-4 (IL-4, 12.5 ng/ml). This in vitro assay, described above, is indicative of immune-suppressive/autoimmune treatment assay emphasizing humoral or B cell immune response. The inventive compound was added to the cells at the doses indicated two hours prior to activation with anti-mu and IL-4. Both compounds nos. 27 and 28 inhibited splenocyte proliferation in a dose-response manner. IC50 values for compounds nos. Background counts were less than 200 cpm.
In figure 57, results shown illustrate that inventive compound no. 45 inhibits B cell proliferation. Murine splenocytes were stimulated with anti-IgM antibodies (10 µg/ml) and murine IL-4 (12.5 ng/ml). Cells were pulsed with ^3HTdR at 44 hours, harvested 4 hours later, and the incorporation of ^3H-TdR was determined by liquid scintillation.

The subject of data set [2] is mixed lymphocyte reaction assay culture. Put plainly: Cell percent viability in mixed lymphocyte reaction culture. Type of data set: cell-based. To be noted: 100 µM, six days of cell culture. The method, then: Cell percent viability in mixed lymphocyte reaction assay culture was determined after six days of cell culture. […] Control cells unexposed to drugs are generally 78 to 85% viable under these culture conditions. In this assay, all inventive compounds were present at 100 µM concentrations, generally well above corresponding IC50 values in this assay (see fig. 2D). […] Compounds nos.

Data set [3] has as its system proliferative PMBC response to allogeneic stimulation. Put plainly: Two-way mixed lymphocyte reaction. Type of data set: cell-based. The source says: This example illustrates therapeutic potential for various autoimmune and inflammatory diseases of the inventive compounds by comparing potency (inhibitive activity) with cytotoxicity data obtained using the following indicative assay procedures. In a mixed lymphocyte reaction assay of compounds nos. […] Compounds nos. […] 2A and 2B. Both compounds nos. […] 2C.
Compound no. […] Compound no.

Data set [4] concerns murine lymph node cell proliferation. In words: Lymph node cell proliferation stimulated by antigen. Type of data set: cell-based. Conditions: Mus musculus. The source says: This example illustrates activity of representative inventive compounds nos. 27, 49, 50, 45, 43 or 41 (above) in assays detecting activity in response to cell stimulus. One assay, murine lymph node cell proliferation (stimulated by anitgen) was used to determine inhibitive activity of compound no. 27 on proliferation of the lymph node cells. This in vitro assay is an immune suppressive/autoimmune treatment predictive assay emphasizing cellular or T cell immune response. The assay used murine T cells that proliferate in vitro in response to a soluble protein antigen, used to prime the T cells in vivo. Compound was added to the cells at doses indicated in figures 7 and 8 (showing assay results) two hours prior to activation with […]. Compound no. 27 inhibited T cell proliferation in a dose-response manner. IC50 values for compound no.

The subject of data set [5] is murine thymocyte proliferation. Put plainly: Thymocyte proliferation co-stimulated by ConA and IL-2 (tritiated thymidine). The format is cell-based, Balb/C mice. Conditions: ConA and IL-2 co-stimulation. On the procedure:
ConA, used to activate CD3, induces T-cell proliferation and differentiation. Thymuses, obtained from normal, female Balb/C mice, were dissociated and plated into 96-well plates at a density of 2 x 10^5 cells/well. ConA (0.25 mg/ml) and IL-2 (15 U/ml) were added to the wells. The cells were incubated for 4 days at 37°C. On day 4, the cells were pulsed with tritiated thymidine and incubated for an additional 4 hours. The amount of tritiated thymidine dye incorporated by the harvested cells was determined in a liquid scintillation counter. Drug doses (shown in figs. 1A and 1B) were added two hours prior to ConA and IL-2 activation.
Thymuses, obtained from normal, female Balb/C mice, were dissociated and plated into 96-well plates at a density of 2 x 10^5 cells/well. ConA (0.25 mg/ml) and IL-2 (15 U/ml) were added to the wells. The cells were incubated for 4 days at 37 °C. On day 4, the cells were pulsed with tritiated thymidine and incubated for an additional 4 hours. The amount of tritiated thymidine dye incorporated by the harvested cells was determined in a liquid scintillation counter. Doses (shown in figs. 26A, 26B and 26C) were added two hours prior to ConA and IL-2 activation.
In another in vitro protocol, thymocyte proliferation was induced by sub-mitogenic doses of Con A (0.25 µg/ml) and IL-2 (20 ng/ml). Cells were stimulated for 96 hours, prior to addition of ^3H-TdR for 4 hours. The cells were harvested and incorporation of ^3H-TdR was determined.
45 on co-stimulated thymocyte proliferation. In an assay procedure, murine thymocytes were stimulated with ConA and IL-2 with 1 µM compound no. 45 added either 1 hour prior to IL-2 (-1), simultaneous with IL-2 (0) or at various times following IL-2 addition (1-92 hour). At 92 hours the thymocytes were pulsed with ^3H-TdR, harvested and counted by scintillation 4 hours later.

In a further data set the test system is mast cell degranulation. Put plainly: Serotonin release assay for inhibition of mast cell degranulation. Type of data set: cell-based. Conditions: Concentration 50 µM. The source says:
This assay provides an in vitro model for an allergy and asthma therapeutic product. […]

In data set [6] the test system is transformed cells (Ras 3T3) and normal 3T3 cells. In words: Cytotoxicity for transformed versus non-transformed cells. Type of data set: cell-based. To be noted: 1, 10 and 100 µM. On the procedure: This example compares cytotoxicity results for inventive compound no. 27 for transformed cells and non-transformed cells. In transformed cells (Ras 3T3) and in normal 3T3 cells, cytotoxicity of compound no. 27 at concentrations of 1, 10 and 100 µM was determined. Figure 18 reports results obtained in this assay. At each of the above concentrations, compound no.

Data set [7] has as its system murine thymocyte proliferation. Put plainly: Thymocyte proliferation stimulated by Con A and IL-1α. Conditions: Mus musculus, 2 h, added two hours prior to Con A and IL-1α. The format is cell-based. On the procedure:
In a first part of this example, compounds nos. 30, 33, 28 and 27 (see above for chemical names and structures) show effective inhibition of murine thymocyte proliferation stimulated by Con A and interleukin 1 alpha (IL-1α). Compounds nos. 30, 33, 28 and 27 were added to cell cultures two hours prior to activation with Con A and IL-1α in a thymocyte co-stimulation procedure akin to that discussed in example 21. […] IC50 values determined for each inventive compound tested are as follow: compound no. […] Background counts in the assay were less than 200 cpm.

In the next data set the test system is Human stromal cells. Put plainly: Stromal cell proliferation in response to PDGF-BB. Conditions: 50 ng/ml PDGF-BB. The format is cell-based. On the procedure: This assay is useful for predicting therapeutic activity for preventing or treating restenosis, atherosclerosis and coronary artery disease. Human stromal cells were starved in serum-free media for one day and then stimulated with 50 ng/ml PDGF-BB. Inventive compounds, at various concentrations, were added one hour prior to PDGF stimulation. PDGF and tritiated thymidine were added and the cells allowed to incubate for one day, following addition of the PDGF and thymidine. 24 Hours later, the cells were harvested and counted by liquid scintillation counting. Results for compounds nos. Background counts (i.e., starved cells) were approximately 1% of control levels. […] 30, 28, 29, 32 and 31, respectively.

In the next data set the test system is CMV promoter activity. In words: microbe, parasite or virus in culture. The format is cell-based. The source says:
This example illustrates data of proliferative activity of various inventive compounds for inducing CMV promoter activity. The CMV promoter assay measures gene transcription and translation activity wherein any active compounds will have cytotoxic activity for inhibiting cellular protein synthesis in transformed (adenovirus) cells. Compound no. […]

Another data set relates to Saccharomyces cervisiae. In words: Yeast growth assay (anti-yeast and anti-fungal activity). The format is cell-based. To be noted: 100 µM. On the procedure:
This example illustrates the effects of a reference compound "X", and inventive compounds nos. 29, 30, 31, 32 and 33 (see above for names and structures) on yeast growth (Saccharomyces cervisiae)--using 100 µM concentrations--as compared with yeast activity in the absence of any compound additive (control). This assay measured anti-yeast and anti-fungal activity of the inventive compounds tested.

In data set [8] the test system is PDGF/IL-1 co-stimulation, proliferation. In words: PDGF/IL-1 co-stimulation proliferation assay. Type of data set: cell-based. Conditions: fig. 14. The source says: The PDGF/IL-1 assay is useful in measuring in vitro activity, indicative of therapeutic potential for treating or preventing restenosis and reperfusion. Figure 14 reports IC50 bar graph results for a group of inventive compounds nos. 27, 28, 32, 30, 31, 32 and 34. In this predictive, in vitro model, compounds nos.

A short description of data set [9]: Cytotoxicity to stromal cells in the stromal cell/PDGF stimulation assay. Type of data set: cell-based. Conditions: human, read-out: concentrations with cytotoxic effects. On the procedure:
In conjunction with the human stromal cell/PDGF stimulation assay, cytotoxicity of the inventive compounds tested to stromal cells was also determined. […] Only compond no.

The next data set deals with IL-2. In words: IL-2 production in thymocytes stimulated with ConA and IL-1 (ELISA). The format is cell-based, murine. Conditions: ConA and IL-1, 4 days. The source says: Thymocytes were stimulated with ConA and IL-1 for 4 days with or without adding inventive compounds to the culture media. The supernatants were removed and assayed by ELISA for IL-2 levels by a commercially available kit.
On the technique in general: In an ELISA, binding on a coated surface is turned into a signal by an enzyme label.

Data set [10] relates to murine cytotoxic T-cell line, CT6. In words: Cytokine-induced proliferation of the cytotoxic T-cell line CT6 / CT-6.1. To be noted: added one hour prior to IL-2, thymidine at 48 hours. The format is cell-based. The method, then:
Another assay in this example was used to determine inhibitive activity of the inventive compounds on direct IL-2-induced proliferation in a murine cytotoxic T-cell line, CT6. The CT6 cell line is an IL-2-dependent cell line. IL-2 was removed from the medium for 24 hours prior to stimulation. […] 49, 50, 45, 43 or 41 were added at various concentrations. The cells were stimulated with IL-2 and amount of tritiated thymidine dye incorporated was measured 48 hours later.
In another related assay, inhibitory effects on CT6 cell proliferation is examined. CT6 cells are a murine IL-2 dependent, cytotoxic T cell line that proliferate in response to murine IL-2 (15 U/ml).
CT-6.1 cells were starved overnight and stimulated with IL-2 (20 ng/ml). Twenty hours later, cells were labeled for 4 hours with ^3H-TdR and counted by liquid scintillation.
CT6.1 cells were cultured with IL-2 with or without the addition of inventive compound no. 45 (2 µM) and viable cells counted for up to 8 days. On day 4, two cultures previously incubated with compound no. 45, were washed and recultured with fresh IL-2 with or without compound no. 45 (2 µM).
Procedurally, CT-6.1 cells were starved overnight and stimulated with either IL-2 (20 ng/ml), IL-4 (50 ng/ml) or IL-7 (25 ng/ml). ^3H-TdR was added at 20 hours, cells were harvested 4 hours later, and the incorporation of ^3H-TdR was determined.

Data set [11] relates to IL-2 (alpha chain CD25) receptor. Put plainly: IL-2 receptor expression on anti-CD3 stimulated splenocytes (flow cytometry). Type of data set: cell-based, mouse. Conditions: anti-CD3 10 µg/ml, 1 µM. On the procedure:
This investigation illustrates IL-2 (alpha chain CD25) receptor expression on mouse splenoyctes. The IL-2 receptor is not expressed on resting T-cells, but is rapidly-induced by certain stimulants, e.g. antigen recognition or treatment with ConA or antibodies to CD3 (anti-CD3). IL-2-dependent proliferation requires IL-2 receptor expression. […] 49 (1 µM). Following overnight incubation, the splenocytes were stained with a fluoresceinated anti-IL-2 receptor antibody and fluorescence measured by flow cytometry. Figures 5A and 5B are frequency histograms of measurements for 20,000 cells per sample.
In another assay, inventive compound no. […] Murine splenocytes were activated for 24 hours with anti-CD3 (1 µg/ml), stained with a fluorescent antibody to CD25 and analyzed by flow cytometry.
On the technique in general: In flow cytometry, cells or beads pass a laser one at a time.

Data set [12] deals with splenocyte IL-2-stimulated proliferation. Put plainly: Splenocyte IL-2-stimulated proliferation. Conditions: Mus musculus, read-out: block of splenocyte IL-2-stimulated proliferation. Type of data set: cell-based.

In general, IC50 refers to the concentration that inhibits the measured activity by half. A low value points to greater potency. With `Cn1cnc2c1c(=O)n(CCCCCCCC(O)CNCc1ccccc1)c(=O)n2C` (centres unmarked) [compound no. 27, 1-(8-hydroxy-9-(N-benzyl)aminononyl)-3,7-dimethylxanthine], the IC50 in data set [1] was 3.3 µM; in data set [3] (Lymphocyte, figs. 2A-2C), 40 µM; in data set [4] (first experiment (fig. 7)), 23.1 µM; in data set [4] (second experiment (fig. 8)), 19 µM; in data set [7] it was < 12.5 µM. In addition, the “cytotoxicity (percent viability)” value in data set [2] is listed as “little or no cytotoxicity”. Besides, in data set [3] (fig. 2D), the immune suppression activity result is given as “did not exhibit significant suppressive activity”. Besides, the “inhibition of thymocyte proliferation” value in [5] is “the most potent immune-suppressive effects”. In the data set on mast cell degranulation (Mast cell), the inhibition at 50 µM amounted to 29%. The differential cytotoxicity result in [6] is given as “more cytotoxic for the cancer cells than normal cells”.
Take `CCCCCCCCCCCNCC(O)CCCCn1c(=O)c2c(ncn2C)n(C)c1=O` (centres unmarked) [compound no. 30, 1-(6-Undecylamino-5-hydroxyhexyl)-3,7-dimethylxanthine]: the IC50 in the data set on Human stromal cells is 0.9 µM; with CMV promoter activity (transformed (adenovirus) cells), 15 µM; in data set [7] it was 0.94 µM. The “cytotoxicity, ranking among compounds tested” value with CMV promoter activity is “the most cytotoxic compound tested”. The yeast-growth inhibitive activity result in the data set on Saccharomyces cervisiae is “showed yeast-growth inhibitive activity”. Also, the inhibitive activity entry in data set [8] is reported as “potent inhibitive activity”. In [5], the “inhibition of thymocyte proliferation” value is given as “the most potent immune-suppressive effects”. The “% Inhibition” value in the data set on mast cell degranulation is given as “too toxic”. For the same compound, in data set [9], the MCC was > 900 nM.
Regarding `CCCCCCCCCCNCC(O)CCCCCCCCCn1c(=O)c2c(ncn2C)n(C)c1=O` (centres unmarked) [compound no. 49, 1-(11-Decylamino-10-hydroxyundecyl)-3,7-dimethylxanthine], the IL-2 production result with IL-2 is “do not inhibit production of IL-2”. For the same compound, the “inhibition of direct IL-2-induced proliferation” value in [10] is given as “inhibited direct IL-2-induced CT6 proliferation”. In data set [11], the IL-2 receptor expression result was “has no effect on receptor expression”. Also, in data set [12], the inhibition at 1 µM amounted to 90%.
